A value given as a limit tells only on which side of the number the result lay.

What is called IC50 is the concentration that gives 50% inhibition.

In the test the target is MAPK14 (human) (UniProt Q16539). Put plainly: Inhibition of MAPK14 Kinase Activity. The following applies: Monocyte.
MAPK14 (human), sequence (Q16539 whole entry, looked up): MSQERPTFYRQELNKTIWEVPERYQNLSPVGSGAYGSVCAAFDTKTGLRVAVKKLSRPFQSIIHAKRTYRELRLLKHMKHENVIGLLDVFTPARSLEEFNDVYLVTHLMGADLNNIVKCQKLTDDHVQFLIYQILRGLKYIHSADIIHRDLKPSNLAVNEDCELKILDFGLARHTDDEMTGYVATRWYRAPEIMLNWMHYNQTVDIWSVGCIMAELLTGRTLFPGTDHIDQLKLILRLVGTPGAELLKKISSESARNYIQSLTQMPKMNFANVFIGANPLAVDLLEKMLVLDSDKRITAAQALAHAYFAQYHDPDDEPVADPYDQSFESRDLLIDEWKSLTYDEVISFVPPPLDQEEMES
In turn, `Cc1ccc(C(N)=O)cc1-n1c(C)cc(OCc2ccc(F)cc2CNC(=O)NC2CC2)c(Cl)c1=O` came in with a half-maximal inhibitory concentration (IC50) of less than 1 µM.
The value for `Cc1cc(OCc2ccc(F)cc2F)c(Br)c(=O)n1Cc1cnc(CNC(=O)CN)nc1` was less than 1 µM; that for `Cc1cc(OCc2ccc(F)cc2F)c(Br)c(=O)n1-c1c(F)cc(/C=C/CO)cc1F` was less than 1 µM; that for `Cc1cc(OCc2ccc(F)cc2F)c(Br)c(=O)n1-c1c(F)cc(C(O)COC(N)=O)cc1F` (stereo not given) was less than 1 µM.
The same measure for `Cc1cc(OCc2ccc(F)cc2F)c(Br)c(=O)n1-c1ccc(C(=O)N(C)C)cc1C(F)(F)F`: 1 to 25 µM.
In turn, `CNC(=O)c1ccc(C(C)n2c(C)cc(OCc3ccc(F)cc3F)c(Br)c2=O)cc1` (stereo not given) displayed an IC50 of 1 to 25 µM.
With `Cc1cc(OCc2ccc(F)cc2C(N)=O)c(Br)c(=O)n1-c1c(F)cccc1F`, the IC50 is 25 to 100 µM.
The compound `Cc1cc(OCc2ccc(F)cc2F)c(Br)c(=O)n1Cc1cc[nH]n1` yielded a 50% inhibitory concentration (IC50) of less than 1 µM.
The same measure for `Cc1cc(OCc2ccc(F)cc2F)c(Br)c(=O)n1Cc1cnc(N(C)C)nc1`: less than 1 µM; for `Cc1ccc(C(N)=O)cc1-n1c(C)cc(OCc2ccc(F)cc2F)c(Br)c1=O`: less than 1 µM.
Compound `Cc1cc(OCc2ccc(F)cc2F)c(Br)c(=O)n1-c1ccc(CNC(=O)C(C)(C)O)cc1` had an IC50 of less than 1 µM.
Regarding `CNCC(=O)NCc1ccc(Cn2c(C)cc(OCc3ccc(F)cc3F)c(Br)c2=O)cc1`, the IC50 was less than 1 µM.
For `Cc1cc(OCc2ccc(F)cc2F)c(Cl)c(=O)n1Cc1ccc2c(c1)CN(C(=O)C(C)(C)O)C2`, the IC50 is less than 1 µM.
In turn, `Cc1cc(OCc2ccc(F)cc2F)c(Br)c(=O)n1Cc1ccc(C(=O)N2CCOCC2)o1` returned an IC50 of less than 1 µM.
The same measure for `Cc1cc(OCc2ccc(F)cc2F)c(Br)c(=O)n1Cc1ccc(C(=O)NCCO)o1`: 1 to 25 µM.

The record behind these values is the Kinase Knowledgebase extract (Sharma et al. 2016).
